Consider seven compounds from US20260116867A1, “PROTEOLYSIS TARGETING CHIMERAS FOR HUMAN PREGNANE X RECEPTOR AND FOR DEGRADATION OF GSPT1” (ST. JUDE CHILDREN'S RESEARCH HOSPITAL, priority 2022, published 2026).

In series [1] the target is T1, PXR (Homo sapiens, UniProt O75469).
T1 sequence (O75469 1-434): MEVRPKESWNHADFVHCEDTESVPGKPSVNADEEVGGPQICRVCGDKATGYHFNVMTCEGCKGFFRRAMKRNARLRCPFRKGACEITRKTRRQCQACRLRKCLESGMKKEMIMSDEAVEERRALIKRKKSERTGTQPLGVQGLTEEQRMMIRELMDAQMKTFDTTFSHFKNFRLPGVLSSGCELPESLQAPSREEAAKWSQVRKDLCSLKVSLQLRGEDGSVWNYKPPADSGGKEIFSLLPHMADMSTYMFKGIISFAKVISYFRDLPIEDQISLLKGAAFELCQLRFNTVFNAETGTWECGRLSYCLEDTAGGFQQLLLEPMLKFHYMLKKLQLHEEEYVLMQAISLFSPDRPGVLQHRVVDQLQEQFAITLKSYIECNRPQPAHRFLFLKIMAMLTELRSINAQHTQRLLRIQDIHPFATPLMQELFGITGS
Put plainly: cell-based hPXR agonistic assay. The following applies: for Agonist (% activation at 10 μM): rifampicin at 10 μM as 100% activation, DMSO (0.3%) as 0%; for EC50: NA = no value within concentration range tested (highest 30 μM), read-out: Agonist (EC50/μM).

For series [2], the target named is T1, PXR. Put plainly: hPXR binding assay. Particulars: for inhibition at 10 µM: read-out: Binding (% inhibition at 10 μM).
Another series addresses T2, HiBiT-FKBP12^F36V-PXR (Homo sapiens, UniProt O75469+P62942, F37V).
T2 construct: expressed in transfected cells; host or cells: HepG2 cells (transient, Lipofectamine 3000)
Put plainly: HiBiT assay for degradation of overexpressed protein in HepG2 cells. Format: cell-based. Particulars: FIG. 2C. On the procedure:
HepG2 cells (5×10^6 cells/dish) were plated in tissue culture-treated 10 cm dishes in 10 mL EMEM with 10% FBS. The next day, cells were transfected with 5 μg pcDNA3-HiBiT-FKBP^F36V-2xHA-PXR and either 5 μg pcDNA3 vector or 5 μg pcDNA3-HA-CRBN using Lipofectamine 3000 (Thermo Fisher Scientific). After 24 h, cells were trypsinized, resuspended in assay media, and plated in white tissue culture-treated 384-well plates (1.5×10^4 cells/well in 25 μL medium). […] The plates were incubated for 24 h, and the Nano-Glo HiBiT Lytic Detection System (Promega) and an EnVision microplate reader were used to measure HiBiT signal. Results are reported as fold change relative to DMSO control cells.
To establish a method for discovery of PXR degraders in the absence of a known PXR-degrading control, the degradation tag (dTAG) system was used. With this method, a protein of interest (PXR) is fused to a cytosolic prolyl isomerase, FKBP12, with Phe36 mutated to Val (FKBP12^F36V) (FIG. 2A). A PROTAC molecule, dTAG-13 (FIG. 2B), is then used to induce degradation of the fusion protein through recruitment of the CUL4-RBX1-DDB1-CRBN (CRL4^CRBN) E3 ubiquitin ligase, without affecting the cellular FKBP12 protein. An HA tag was added for western blot detection, and a HiBiT tag was fused to the N-terminus to allow high-throughput plate-based quantification of HiBiT-FKBP12^F36V-PXR protein levels (FIG. 2A). […] This was also observed when the HA tag was detected by western blot (FIG. 2D). The HiBiT detection was more sensitive to protein level changes than western blot, and, importantly, overexpression of CRBN was required to achieve dTAG-13-mediated degradation of the overexpressed HiBiT-FKBP12^F36V-PXR protein.

The target of series [3] is T1, PXR. Put plainly: cell-based hPXR antagonistic assay. The following applies: for inhibition at 10 µM: read-out: Antagonist (% inhibition at 10 μM); for IC50: read-out: Antagonist (IC50/μM).
Another series deals with T3, GSPT1 (Homo sapiens, UniProt P15170+Q96SW2).
T3 construct: endogenous in cells
Put plainly: Western blot of GSPT1 protein in SNU—C4 3xFLAG-PXR KI cells. In kind it is cell-based. Particulars: for GSPT1 Loss at 10 μM (% ± SD): 10 μM compound, calculated from western blots FIG. 9A; for GSPT1 degradation (in words): western blot, SNU—C4 3xFLAG-PXR KI cells. As to the method: (§1) The following day, DMSO or compounds were added to result in 0.5% DMSO and the indicated compound concentrations, and cells were incubated for the indicated time points. Cells were lysed and subjected to western blotting as above using antibodies against FLAG (Sigma-Aldrich, cat. #F3165, 1:2,000 dilution), GSPT1 (Abcam, cat. #ab126090, 1:4,000 dilution), and R-Actin (Cell Signaling Technology, cat. #4967, 1:2,000 dilution).

Series [4] concerns the target T1, PXR. Put plainly: Western blot of endogenous 3xFLAG-PXR protein in SNU—C4 3xFLAG-PXR KI cells. In kind it is cell-based. On the set-up: To assess SJPYT-195 activity against endogenous PXR, CRISPR-Cas9 was used; endogenous in cells. The following applies: western blot, SNU—C4 3xFLAG-PXR KI cells. On the procedure: as §1
For orientation: A western blot detects proteins with antibodies after separation by electrophoresis.

The target of another series is T4, His-CRBN/DDB1 (Homo sapiens, UniProt Q96SW2).
T4 construct: made in house; host or cells: Sf9 insect cells (baculovirus)
Put plainly: TR-FRET CRBN competitive binding assay (BODIPY FL thalidomide probe). Particulars: FIG. 9D. On the procedure: The pFastBacDual-6xHis-CRBN/DDB1 plasmid was cloned by GenScript and used for baculoviral expression of His-CRBN and untagged DDB1. Protein was expressed and purified essentially as described previously. The bacmid was produced in MAX Efficiency DH10Bac Competent Cells (Thermo Fisher Scientific) according to the manufacturer's instructions. To generate the P1 virus, 1×10^6 Sf9 cells were plated in each well of a six-well plate in 2 mL Sf-900 III SFM and transfected with 7 μg bacmid using Cellfectin II reagent (Thermo Fisher Scientific). After 6 h at 27° C., the media was replaced with 2 mL fresh Sf-900 III SFM. After three days, the supernatant was collected, centrifuged at 500×g for 5 min to remove cells and debris, transferred to new tubes, and stored at 4° C. To generate P2 virus, 2 mL P1 virus was added to 1×10^8 Sf9 cells in 50 mL Sf-900 III SFM and shaken at 27° C. for three days. The supernatant was collected and clarified as above. For protein expression, 5 mL P2 virus was added to each liter of Sf cells (2×10^6 cells/mL) and shaken at 27° C. for three days. Cells containing expressed protein were pelleted by centrifugation at 500×g for 5 min, the supernatant was removed, and pellets were stored at −80° C. until processing. […] The suspension was incubated on ice for 1 h, gently sonicated, and centrifuged for 1 h at 40,000×g at 4° C. The supernatant was applied to Ni-NTA Superflow resin (QIAGEN) equilibrated with lysis buffer. The resin was washed with 10 column volumes (CV) of lysis buffer, and proteins were eluted with 10 CV lysis buffer containing 500 mM imidazole. The solution was diluted to 200 mM NaCl using lysis buffer without NaCl and applied to a HiTrap ANX FF (High Sub) column (Cytiva) equilibrated with ANX binding buffer [50 mM Tris (pH 7.5), 200 mM NaCl, 3 mM TCEP]. The column was washed with 10 CV ANX binding buffer followed by 10 CV ANX wash buffer [50 mM Bis-Tris (pH 6.0), 200 mM NaCl, 3 mM TCEP]. A 20 CV linear gradient was then immediately applied from ANX binding buffer to ANX binding buffer containing 1 M NaCl using an AKTA avant chromatography system (Cytiva). The purest fractions were applied to a HiLoad 26/600 Superdex 200 pg size exclusion column equilibrated with 10 mM HEPES (pH 7.0), 240 mM NaCl, and 3 mM TCEP. Pure protein was concentrated to 20-30 mg/mL in Pierce PES Protein Concentrators (Thermo Fisher Scientific), flash frozen in liquid nitrogen, and stored at −80° C.
The assay buffer composition was 50 mM Tris (pH 7.5), 0.1% Triton X-100, 0.01% bovine serum albumin, and 1 mM DTT. […] Lastly, 5 μL/well of 8 nM Tb-anti-His and 8 nM His-CRBN/DDB1 in assay buffer was added. […] The plates were then protected from light exposure and incubated for 60 minutes at room temperature (RT). After incubation, the TR-FRET signal from each well was collected with a PHERAstar FS Microplate Reader (BMG Labtech). The percent inhibition for each well was calculated using equation 2: […]
(In general: In TR-FRET formats the signal depends on donor and acceptor labels being close together.)

Series [5] has as its target T1, PXR. Put plainly: cell-based hPXR inverse agonistic assay.

Entries after “also recorded” stand apart in the source; their conditions may differ.

In general, inhibition refers to the drop in the measured response relative to a control, in per cent.

On to `COc1ccc(OC)c(-n2nnc(C(=O)Nc3cc(C(C)(C)C)ccc3OCCCCN3C(=O)CCC(N4Cc5c(N)cccc5C4=O)C3=O)c2C)c1` (stereo not drawn) [Compound N1, N-(2-(4-(3-(4-amino-1-oxoisoindolin-2-yl)-2,6-dioxopiperidin-1-yl)butoxy)-5-(tert-butyl)phenyl)-1-(2,5-dimethoxyphenyl)-5-methyl-1H-1,2,3-triazole-4-carboxamide], for which, on PXR [1], the “Agonist (% activation at 10 μM)” value was “(55 ± 5)%” and the EC50 is 0.75 ± 0.11 µM. Also, at PXR [2], the IC50 was 1.27 ± 0.48 µM and the inhibition at 10 µM was found to be 34%.
Turning to `CO[C@H]1/C=C/O[C@@]2(C)Oc3c(C)c(O)c4c(O)c(c(/C=N/N5CCN(C)CC5)c(O)c4c3C2=O)NC(=O)/C(C)=C\C=C\[C@H](C)[C@H](O)[C@@H](C)[C@@H](O)[C@@H](C)[C@H](OC(C)=O)[C@@H]1C` [Rifampicin, reference compound], the “Agonist (% activation at 10 μM)” value on PXR [1] is given as “(100 ± 2)%”.
Regarding `CC[C@H](C(=O)N1CCCC[C@H]1C(=O)O[C@H](CCc1ccc(OC)c(OC)c1)c1ccccc1OCC(=O)NCCCCCCOc1cccc2c1C(=O)N(C1CCC(=O)NC1=O)C2=O)c1cc(OC)c(OC)c(OC)c1` (stereo partly drawn) [dTAG-13], on HiBiT-FKBP12^F36V-PXR (HepG2 overexpressing HiBiT-FKBP12^F36V-PXR and CRBN), the “HiBiT signal, CRBN co-overexpressed” value is reported as “potently reduced HiBiT signal”. Also, the “HiBiT signal, without CRBN co-overexpression” value at HiBiT-FKBP12^F36V-PXR (HepG2 overexpressing HiBiT-FKBP12^F36V-PXR) was “only a slight reduction in HiBiT signal”.
Regarding `COc1ccc(OC)c(-n2nnc(C(=O)Nc3cc(C(C)(C)C)ccc3OCCCCOc3cccc4c3C(=O)N(C3CCC(=O)NC3=O)C4=O)c2C)c1` (stereo not drawn) [Compound M12, N-(5-(tert-butyl)-2-(4-((2-(2,6-dioxopiperidin-3-yl)-1,3-dioxoisoindolin-4-yl)oxy)butoxy)phenyl)-1-(2,5-dimethoxyphenyl)-5-methyl-1H-1,2,3-triazole-4-carboxamide], on PXR [1], the “Agonist (% activation at 10 μM)” value is “(33 ± 1)%” and the EC50 was 0.27 ± 0.078 µM. Besides, at PXR [3], the inhibition at 10 µM came out at 28% and the IC50 is 0.67 ± 0.26 µM. On PXR [2], the IC50 worked out at 0.032 ± 0.002 µM and the inhibition at 10 µM was 56%.
Consider `COc1ccc(OC)c(-n2nnc(C(=O)Nc3cc(OCCCCCCCCN4C(=O)CCC(N5C(=O)c6cccc(N)c6C5=O)C4=O)cc(C(C)(C)C)c3)c2C)c1` (stereo not drawn) [Compound N5, N-(3-((8-(3-(4-amino-1,3-dioxoisoindolin-2-yl)-2,6-dioxopiperidin-1-yl)octyl)oxy)-5-(tert-butyl)phenyl)-1-(2,5-dimethoxyphenyl)-5-methyl-1H-1,2,3-triazole-4-carboxamide], for which the “Agonist (% activation at 10 μM)” value on PXR [1] is on record as “(81 ± 5)%”.
On to `CC(=O)Nc1cc(Nc2cccc3c2C(=O)N(C2CCC(=O)NC2=O)C3=O)cc(C(C)(C)C)c1` (stereo not drawn) [Compound A3, N-(3-(tert-butyl)-5-((2-(2,6-dioxopiperidin-3-yl)-1,3-dioxoisoindolin-4-yl)amino)phenyl)acetamide], for which, on GSPT1, the “GSPT1 Loss at 10 μM (% ± SD)” value was 15 ± 21%. Also, the “GSPT1 degradation (in words)” value at GSPT1 (listed as SJPYT-231) was “did not affect either PXR or GSPT1 levels; also recorded: lost the degradation activity of GSPT1”. Further, the “PXR protein level (in words)” value on PXR [4] is reported as “did not affect either PXR or GSPT1 levels”. In addition, at His-CRBN/DDB1 (listed as SJPYT-231), the “CRBN binding (in words)” value is reported as “strongest CRBN binding of all tested compounds; also recorded: maintained strong CRBN binding; also recorded: higher affinity CRBN binder than thalidomide or pomalidomide”.
Regarding `COc1ccc(OC)c(-n2nnc(C(=O)Nc3cc(NCCNc4cccc5c4C(=O)N(C4CCC(=O)NC4=O)C5=O)cc(C(C)(C)C)c3)c2C)c1` (stereo not drawn) [Compound M11, N-(3-(tert-butyl)-5-((2-((2-(2,6-dioxopiperidin-3-yl)-1,3-dioxoisoindolin-4-yl)amino)ethyl)amino)phenyl)-1-(2,5-dimethoxyphenyl)-5-methyl-1H-1,2,3-triazole-4-carboxamide], the “GSPT1 Loss at 10 μM (% ± SD)” value at GSPT1 is 63 ± 13%. For the same compound, the “GSPT1 degradation (in words)” value at GSPT1 is on record as “strong GSPT1 degradation”. In addition, the results for the inhibition at 10 µM on PXR [3], at PXR [5] (read-out: Inverse agonist (% inhibition at 10 μM)) and on PXR [2] were 109%, 135% and 61%, respectively. In addition, the IC50 on PXR [3] was found to be 0.026 ± 0.0008 µM; on PXR [5] (read-out: Inverse agonist (IC50/μM)), 0.0079 µM; on PXR [2] it was 0.67 ± 0.014 µM. For the same compound, at His-CRBN/DDB1, the “CRBN binding (in words)” value is on record as “retained strong binding of CRBN”.
